Measured values: the supplement of paper PMC10307832

How the values were obtained:
Assay in all cases: relative viability (nuclei count vs DMSO), 5 days (fraction); higher = more cells survive
Sulindac + Crizotinib = compound: CC1=C(CC(=O)O)c2cc(F)ccc2/C1=C\c1ccc([S+](C)[O-])cc1 [Sulindac] + C[C@@H](Oc1cc(-c2cnn(C3CCNCC3)c2)cnc1N)c1c(Cl)ccc(F)c1Cl [Crizotinib] (partner 1 µM)
How it was run: (§1)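 One day after seeding in 1536-well plates, lung cancer cell lines were dosed by pin tool. Dosing was either single-drug or a fixed anchor-drug dose plus five library-drug doses (not always all listed) in √10 steps. After 5 days, nuclei were stained in one fix-and-stain step and counted on 4× images, and relative viability is the nuclei count of treated wells over that of vehicle wells, given as the median of duplicate plates.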

[1] = compound: O=c1[nH]cc(F)c(=O)[nH]1 [5-Fluorouracil] + CS(=O)(=O)N1CCN(Cc2cc3nc(-c4cccc5[nH]ncc45)nc(N4CCOCC4)c3s2)CC1 [Pictilisib] (partner 1 µM)
How it was run: as §1

[2] = compound: O=c1[nH]cc(F)c(=O)[nH]1 [5-Fluorouracil] + Nc1nc2[nH]cc(CCc3ccc(C(=O)N[C@@H](CCC(=O)O)C(=O)O)cc3)c2c(=O)[nH]1 [Pemetrexed] (partner 0.2 µM)
How it was run: as §1

[3] = compound: O=c1[nH]cc(F)c(=O)[nH]1 [5-Fluorouracil] + CCNC(=O)c1noc(-c2cc(C(C)C)c(O)cc2O)c1-c1ccc(CN2CCOCC2)cc1 [Luminespib] (partner 0.01 µM)
How it was run: as §1

[4] = compound: O=c1[nH]cc(F)c(=O)[nH]1 [5-Fluorouracil] + O=C(CCCCCCC(=O)Nc1ccccc1)NO [Vorinostat] (partner 1 µM)
How it was run: as §1

In the case of UMC-11, the relative viability (Sulindac + Crizotinib; first compound 0.08 µM) is reported as 0.862, the relative viability (Sulindac + Crizotinib; first compound 0.253 µM) is reported as 0.525 and the relative viability (Sulindac + Crizotinib; first compound 0.8 µM) is reported as 0.66. For the same cell line, the relative viability (Sulindac + Crizotinib; first compound 2.53 µM) was 0.578, the relative viability (Sulindac + Crizotinib; first compound 8 µM) was 0.901 and the relative viability ([1]; first compound 0.02 µM) was 0.834. It also gave a relative viability ([1]; first compound 0.2 µM) of 0.601, a relative viability ([1]; first compound 0.6325 µM) of 0.397 and a relative viability ([1]; first compound 2 µM) of 0.36. For the same cell line, the relative viability ([2]; first compound 0.02 µM) was 0.807, the relative viability ([2]; first compound 0.2 µM) was 0.563 and the relative viability ([2]; first compound 0.6325 µM) was 0.508. It also gave a relative viability ([3]; first compound 0.02 µM) of 0.954, a relative viability ([3]; first compound 0.2 µM) of 0.68 and a relative viability ([3]; first compound 0.6325 µM) of 0.516. For the same cell line, the relative viability ([3]; first compound 2 µM) was 0.396, the relative viability ([4]; first compound 0.02 µM) was 0.374 and the relative viability ([4]; first compound 0.2 µM) was 0.325. It also gave a relative viability ([4]; first compound 0.6325 µM) of 0.244.
